From PMC8205030, “Methoxy and bromo scans on N-(5-methoxyphenyl) methoxybenzenesulphonamides reveal potent cytotoxic compounds, especially against the human breast adenocarcinoma MCF7 cell line” (Journal of Enzyme Inhibition and Medicinal Chemistry, 2021)

What was measured:
Type in all cases: cell-based, human
[1] = tested on: microtubule network of HeLa cells; assay: Immunofluorescence of microtubule network, HeLa; settings: 175 nM, 72 h, confocal microscopy
Protocol: (§1) MCF7, HeLa, and HT-29 cells were grown on round glass coverslips coated with poly-L-lysine (12 mm diameter). To reach appropriate cell confluence, coverslips were manipulated in 6-well plates (3 coverslips/well) seeding 3 ml/well of cells in the exponential growth phase at 2 × 10^4 cells/mL. After 24 h incubation, cells were treated with compound 25 at 175 nM and incubated for 72 h. Cells were washed with PBS, fixed with 4% formaldehyde in PBS for 10 min, permeabilized with 0.5% Triton X-100 (Boehringer Mannheim, Ingelheimam Rhein, Germany) in PBS for 10 min, and blocked with 10% BSA in PBS for 30 min. Then, coverslips were incubated with anti-α-tubulin mouse monoclonal antibody (diluted 1:200 in 3% BSA/PBS) (Sigma-Aldrich Co.) and anti-SQSTM1/p62 rabbit monoclonal antibody (diluted 1:100 in 3% BSA/PBS) (Abcam) for 1 h 30 min. After PBS washing, coverslips were incubated with fluorescent secondary antibodies Alexa Fluor 488 goat anti-mouse IgG and Alexa Fluor 594 anti-rabbit (both diluted 1:400 in 1% BSA/PBS) (Molecular Probes, Invitrogen, Thermo Fischer Scientific) for 1 h in darkness. […] Cells were analysed by confocal microscopy using a LEICA SP5 microscope DMI-6000V model coupled to a LEICA LAS AF software computer.

[2] = tested on: microtubule network of HT-29 cells; assay: Immunofluorescence of microtubule network, HT-29; settings: HT-29, 175 nM, 72 h, confocal microscopy
Protocol: as §1

p-62 in HT-29 cells = assay: Western blot of autophagosome marker p-62, HT-29; settings: HT-29, 175 nM, 24 h
Protocol: MCF7, HeLa and HT-29 cells in an exponential growth phase at 2 × 10^4 cells/mL were seeded in Petri dishes (20 × 100 mm) (10 ml/dish). After 24 h incubation, cells were treated with compound 25 at 175 nM, and the levels of p-62 in treated and untreated cells were measured at 24 h post-treatment. The culture medium was removed, cells were washed with PBS and resuspended in 1 ml lysis buffer (50 mM Tris, 130 mM NaCl, 1 mM EDTA, 1% Triton X-100) containing protease inhibitors (Complete, Roche Applied Science, Indianapolis). Cells were harvested and incubated with lysis buffer for 30 min at 4 °C in constant agitation. Cell extracts were centrifuged at 12,000 rpm for 15 min at 4 °C and the supernatants were stored at −80 °C. Protein concentrations were determined using Bradford (BioRad, Hercules, CA) method taking BSA (Bovine Serum Albumin) as standard. Protein extracts were used for electrophoresis mixing with loading buffer (4% SDS, 0.05% bromophenol blue, 20% glycerine, 2% β-mercaptoethanol, and Tris 100 mM at pH 6.8). Proteins were then denatured at 95 °C for 7 min. Protein samples (50 μg/lane) were subjected to electrophoresis on 8% acrylamide gel and SDS-PAGE running buffer at constant voltage (140 V). Then, acrylamide gels were transferred to a PVDF membrane (Merck Millipore, Burlington, Massachusetts, USA) using a semi-dry transfer system for 30 min at constant voltage (15 V). […]

COc1ccc(S(=O)(=O)N(CC#N)c2cc(OC)c(Br)cc2OC)cc1 [Compound 25, N-(4-bromo-2,5-dimethoxyphenyl)-N-(cyanomethyl)-4-methoxybenzenesulphonamide]
Effect on microtubule network [1]: disrupted the microtubule network
Effect on microtubule network [2]: disrupted the microtubule network
p-62 levels (p-62 in HT-29 cells): almost complete reduction in the expression of p-62
